The IC50 is the midpoint of a concentration-inhibition curve.

The source of these data is patent US12240904B2, “Use of anti-PD-1 antibody in combination with famitinib in preparation of drug for treating tumors” (Jiangsu Hengrui Medicine Co., Ltd., priority 2018, dated 2025).

Read-outs that look alike come from different tables or passages of the source.

For data set [1], the system named is advanced/metastatic colorectal cancer. The note with it: 25 mg, once a day, cited from earlier work.
A further data set addresses T1, Axl (Homo sapiens, UniProt P30530).
T1 construct: purchased
T1 sequence (P30530 26-894): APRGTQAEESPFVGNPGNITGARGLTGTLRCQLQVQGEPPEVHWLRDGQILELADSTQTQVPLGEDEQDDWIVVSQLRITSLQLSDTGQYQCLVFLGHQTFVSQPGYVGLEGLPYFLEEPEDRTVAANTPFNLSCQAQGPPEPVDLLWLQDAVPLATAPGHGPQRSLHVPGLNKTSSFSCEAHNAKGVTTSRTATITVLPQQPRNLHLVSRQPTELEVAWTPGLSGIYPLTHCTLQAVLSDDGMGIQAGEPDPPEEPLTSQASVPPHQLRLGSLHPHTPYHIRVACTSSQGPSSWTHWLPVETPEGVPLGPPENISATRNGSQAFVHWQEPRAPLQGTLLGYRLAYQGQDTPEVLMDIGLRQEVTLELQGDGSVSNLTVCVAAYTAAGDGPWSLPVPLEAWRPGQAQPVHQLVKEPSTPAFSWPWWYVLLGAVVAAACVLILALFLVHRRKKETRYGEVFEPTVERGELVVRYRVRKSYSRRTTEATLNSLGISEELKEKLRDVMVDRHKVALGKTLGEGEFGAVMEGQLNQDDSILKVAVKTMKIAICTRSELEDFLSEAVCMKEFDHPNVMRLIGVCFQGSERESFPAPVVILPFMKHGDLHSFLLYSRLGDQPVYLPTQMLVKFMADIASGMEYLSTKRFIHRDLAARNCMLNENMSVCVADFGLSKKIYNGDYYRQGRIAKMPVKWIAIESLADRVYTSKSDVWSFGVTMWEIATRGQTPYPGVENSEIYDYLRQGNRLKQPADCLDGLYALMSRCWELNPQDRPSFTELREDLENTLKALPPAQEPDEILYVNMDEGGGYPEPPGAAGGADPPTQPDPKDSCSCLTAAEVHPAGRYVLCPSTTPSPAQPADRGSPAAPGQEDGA
In words: IC50Profiler in vitro kinase activity. Type of data set: biochemical. The note with it: ATP 10 μM. How it is done:
(§1) (1) Experimental Procedures for IC50Profiler™
(§2) Appropriate amounts of kinase and peptide substrates were separately mixed with different concentrations of famitinib malate (1 nM, 3 nM, 10 nM, 30 nM, 100 nM, 300 nM, 1 μM, 3 μM, 10 μM) and incubated for 60 min at room temperature. Magnesium acetate and [gamma-33P]-ATP were added to initiate the kinase-catalyzed reaction, and the reaction was carried out at room temperature for 40 minutes. After the reaction was finished, 3% phosphoric acid solution was added to terminate the reaction. 10 μL of the reaction mixture was taken and added onto a P30 filter membrane to be filtered. The membrane was washed with 75 mM phosphate buffer for 3 times and washed once with methanol to remove free [gamma-33P]-ATP. The protein was fixed, and the membrane was dried. The liquid scintillation analyzer was used to determine the amount of peptide substrate by counting the amount of 33P.

In a further data set the target is T2, Mer (Homo sapiens, UniProt Q12866).
T2 construct: purchased
T2 sequence (Q12866 21-999): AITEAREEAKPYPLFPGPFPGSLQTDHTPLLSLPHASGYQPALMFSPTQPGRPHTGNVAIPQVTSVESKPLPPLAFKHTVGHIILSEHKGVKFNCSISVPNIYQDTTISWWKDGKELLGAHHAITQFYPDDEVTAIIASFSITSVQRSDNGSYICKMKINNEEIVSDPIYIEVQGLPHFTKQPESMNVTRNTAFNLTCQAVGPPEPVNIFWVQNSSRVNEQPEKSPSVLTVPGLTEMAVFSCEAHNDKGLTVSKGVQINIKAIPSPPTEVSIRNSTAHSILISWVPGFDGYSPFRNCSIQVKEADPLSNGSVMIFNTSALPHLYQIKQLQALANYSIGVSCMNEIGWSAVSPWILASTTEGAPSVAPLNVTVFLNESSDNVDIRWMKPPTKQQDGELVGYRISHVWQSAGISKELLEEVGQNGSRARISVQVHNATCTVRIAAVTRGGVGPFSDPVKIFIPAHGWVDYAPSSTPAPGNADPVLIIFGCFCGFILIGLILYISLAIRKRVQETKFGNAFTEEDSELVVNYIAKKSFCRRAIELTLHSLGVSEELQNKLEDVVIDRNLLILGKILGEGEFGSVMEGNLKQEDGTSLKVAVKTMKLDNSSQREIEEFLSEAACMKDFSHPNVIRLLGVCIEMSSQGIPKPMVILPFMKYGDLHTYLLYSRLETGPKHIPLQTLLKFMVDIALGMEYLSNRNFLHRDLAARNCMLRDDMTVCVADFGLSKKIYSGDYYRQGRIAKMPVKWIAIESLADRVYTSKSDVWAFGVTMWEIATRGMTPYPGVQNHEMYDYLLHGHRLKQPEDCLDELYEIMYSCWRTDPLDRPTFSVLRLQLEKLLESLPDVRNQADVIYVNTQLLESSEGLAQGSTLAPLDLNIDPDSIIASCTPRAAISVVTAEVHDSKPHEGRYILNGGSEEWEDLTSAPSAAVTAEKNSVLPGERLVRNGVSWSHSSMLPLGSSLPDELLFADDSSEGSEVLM
Description: IC50Profiler in vitro kinase activity. It counts as biochemical. The note with it: ATP 10 μM. As for the experimental part: as §1, §2

Another data set concerns the target T3, TYRO3 (Rse) (Homo sapiens, UniProt Q06418).
T3 construct: purchased
T3 sequence (Q06418 41-890): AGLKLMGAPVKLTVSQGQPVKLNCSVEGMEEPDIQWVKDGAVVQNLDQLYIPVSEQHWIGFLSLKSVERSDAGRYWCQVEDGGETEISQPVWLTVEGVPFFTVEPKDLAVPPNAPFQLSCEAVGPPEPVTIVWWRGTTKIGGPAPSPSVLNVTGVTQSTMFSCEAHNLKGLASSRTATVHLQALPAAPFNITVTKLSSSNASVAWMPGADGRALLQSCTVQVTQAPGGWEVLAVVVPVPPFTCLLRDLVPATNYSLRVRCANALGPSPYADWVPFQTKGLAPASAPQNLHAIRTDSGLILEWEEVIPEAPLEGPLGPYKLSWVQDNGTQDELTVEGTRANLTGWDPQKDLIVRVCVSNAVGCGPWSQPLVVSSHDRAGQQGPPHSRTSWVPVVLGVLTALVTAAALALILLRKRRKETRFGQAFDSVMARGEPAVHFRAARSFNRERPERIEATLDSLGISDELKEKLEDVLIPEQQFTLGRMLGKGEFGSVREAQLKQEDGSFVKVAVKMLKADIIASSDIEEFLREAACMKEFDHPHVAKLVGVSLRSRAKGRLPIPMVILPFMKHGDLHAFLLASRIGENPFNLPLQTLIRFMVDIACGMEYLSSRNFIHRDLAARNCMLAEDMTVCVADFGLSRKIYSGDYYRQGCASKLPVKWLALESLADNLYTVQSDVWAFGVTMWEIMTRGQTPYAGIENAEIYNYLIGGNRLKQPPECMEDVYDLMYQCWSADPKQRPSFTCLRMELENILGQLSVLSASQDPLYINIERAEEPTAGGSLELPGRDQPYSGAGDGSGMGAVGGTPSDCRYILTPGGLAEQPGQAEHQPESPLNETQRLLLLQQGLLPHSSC
Description: IC50Profiler in vitro kinase activity. Type of data set: biochemical. The note with it: ATP 10 μM. How it is done: as §1, §2

The nature of data set [2]: clinical study, pharmacokinetics of Compound B. The note with it: for AUC: human, blood, oral. It counts as in vivo, human. An excerpt:
In the present disclosure, “AUC” refers to the area surrounded by the pharmacokinetic blood drug concentration curve versus time axis. This parameter is an important indicator for evaluating the degree of drug absorption, reflecting the exposure profiles of the drug in vivo. Since the blood drug concentration in pharmacokinetic studies can only be observed up to a certain time point t, AUC can be expressed in the following two means: AUC (0-t) and AUC (0-∞), wherein AUC (0-t) is derived from the trapezoidal area, and AUC (0-∞) is calculated by the formula: AUC (0-∞)=AUC (0-t)+end point concentration/end point elimination rate. The AUC mentioned in the present application refers to the averaged AUC0-24 of the patient reaching a steady state after a single administration or multiple administrations, preferably the averaged AUC0-24 of the patient reaching a steady state after multiple administrations (i.e. AUCss).
Compound A: intravenous injection, 200 mg, once every 3 weeks, 1 cycle every 3 weeks; Compound B: 20 mg or 15 mg, oral administration, once a day.
Among the 12 subjects who participated in the pharmacokinetic study, PK blood was collected from 9 subjects.

Another data set relates to kidney cancer. The note with it: Compound B 25 mg, q.d., alone; cited from earlier work.
Where [3] appears, read: administration alone, 20 mg (n = 8).
Where [4] appears, read: co-administration with Compound A, 20 mg (n = 9).

Turning to `CCN(CC)CCN1CCc2[nH]c(/C=C3\C(=O)Nc4ccc(F)cc43)c(C)c2C1=O` [famitinib], the “improvement of progression-free survival (PFS) compared to the placebo group” value in data set [1] (period of 42 days) is 1.3 months. In data set [1], the “HR (PFS vs placebo)” value is 0.596, the adverse events entry was “adverse events are under control”, the “disease control rate (DCR)” value is on record as 59.8% and the “median survival (mOS)” value is 7.5 months. Besides, the “objective remission rate (ORR)” value in data set [1] is reported as 2.2%.
With `CCN(CC)CCN1CCc2[nH]c(/C=C3\C(=O)Nc4ccc(F)cc43)c(C)c2C1=O` [Compound B, famitinib malate], the figures for the 50% inhibitory concentration (IC50) at Axl, against Mer and at TYRO3 (Rse) were 36.8 nM, 4.35 nM and 326 nM, respectively. In addition, the “Css, max, Geomean (Geometric % CV)” value is reported as 59.9 (44.4) ng/mL in data set [2] (setting [3]) and 71.6 (24.3) ng/mL in data set [2] (setting [4]). Moreover, the “Css, max, Mean ± SD” value in data set [2] (setting [3]) came to 64.3 ± 23.8 ng/mL; in data set [2] (setting [4]), 73.4 ± 16.8 ng/mL. The entries for the “Css, min, Geomean (Geometric CV %)” value in data set [2] (setting [3]) and in data set [2] (setting [4]) were 29.8 (56.6) ng/mL and 36.6 (28.8) ng/mL, respectively. In addition, the “Css, min, Mean ± SD” value came out at 33.2 ± 14.6 ng/mL in data set [2] (setting [3]) and 38.0 ± 11.0 ng/mL in data set [2] (setting [4]). Besides, the “Tss, max, Median (Min, Max)” value is recorded as 6 (2, 8) h in data set [2] (setting [3]) and 6 (4, 10) h in data set [2] (setting [4]). In addition, in data set [2] (co-administrated with Compound A), the “exposure amount of Compound B compared to administration alone” value is recorded as “increased”. In addition, the AUC stood at 1090 ng·h/mL in data set [2] (20 mg, administration alone, 20 mg (n = 8), read-out: AUCss, Geomean (Geometric % CV)); 1180 ± 465 ng·h/mL in data set [2] (20 mg, administration alone, 20 mg (n = 8), read-out: AUCss, Mean ± SD); 1330 ng·h/mL in data set [2] (co-administration with Compound A, 20 mg (n = 9), read-out: AUCss, Geomean (Geometric % CV)); 1360 ± 300 ng·h/mL in data set [2] (co-administration with Compound A, 20 mg (n = 9), read-out: AUCss, Mean ± SD). Further, in the data set on kidney cancer, the ORR is given as 36%.
